For data set [1], the target named is T1, ATP-dependent translocase ABCB1 (Homo sapiens, UniProt P08183). Briefly: TP_TRANSPORTER: inhibition of Daunorubicin efflux (Daunorubicin: 5 uM, Tween 80: 0.01 %(v/v)) in EHR2/DNR+ cells. In kind it is functional, cell-based. Conditions: mouse.
The target in data set [2] is T1, ATP-dependent translocase ABCB1. Briefly: TP_TRANSPORTER: inhibition of Daunorubicin efflux (Daunorubicin: 5 uM, Cremophor EL: 0.01 %(v/v)) in EHR2/DNR+ cells. In kind it is functional, cell-based. Particulars: mouse.

T1 sequence (P08183 whole entry): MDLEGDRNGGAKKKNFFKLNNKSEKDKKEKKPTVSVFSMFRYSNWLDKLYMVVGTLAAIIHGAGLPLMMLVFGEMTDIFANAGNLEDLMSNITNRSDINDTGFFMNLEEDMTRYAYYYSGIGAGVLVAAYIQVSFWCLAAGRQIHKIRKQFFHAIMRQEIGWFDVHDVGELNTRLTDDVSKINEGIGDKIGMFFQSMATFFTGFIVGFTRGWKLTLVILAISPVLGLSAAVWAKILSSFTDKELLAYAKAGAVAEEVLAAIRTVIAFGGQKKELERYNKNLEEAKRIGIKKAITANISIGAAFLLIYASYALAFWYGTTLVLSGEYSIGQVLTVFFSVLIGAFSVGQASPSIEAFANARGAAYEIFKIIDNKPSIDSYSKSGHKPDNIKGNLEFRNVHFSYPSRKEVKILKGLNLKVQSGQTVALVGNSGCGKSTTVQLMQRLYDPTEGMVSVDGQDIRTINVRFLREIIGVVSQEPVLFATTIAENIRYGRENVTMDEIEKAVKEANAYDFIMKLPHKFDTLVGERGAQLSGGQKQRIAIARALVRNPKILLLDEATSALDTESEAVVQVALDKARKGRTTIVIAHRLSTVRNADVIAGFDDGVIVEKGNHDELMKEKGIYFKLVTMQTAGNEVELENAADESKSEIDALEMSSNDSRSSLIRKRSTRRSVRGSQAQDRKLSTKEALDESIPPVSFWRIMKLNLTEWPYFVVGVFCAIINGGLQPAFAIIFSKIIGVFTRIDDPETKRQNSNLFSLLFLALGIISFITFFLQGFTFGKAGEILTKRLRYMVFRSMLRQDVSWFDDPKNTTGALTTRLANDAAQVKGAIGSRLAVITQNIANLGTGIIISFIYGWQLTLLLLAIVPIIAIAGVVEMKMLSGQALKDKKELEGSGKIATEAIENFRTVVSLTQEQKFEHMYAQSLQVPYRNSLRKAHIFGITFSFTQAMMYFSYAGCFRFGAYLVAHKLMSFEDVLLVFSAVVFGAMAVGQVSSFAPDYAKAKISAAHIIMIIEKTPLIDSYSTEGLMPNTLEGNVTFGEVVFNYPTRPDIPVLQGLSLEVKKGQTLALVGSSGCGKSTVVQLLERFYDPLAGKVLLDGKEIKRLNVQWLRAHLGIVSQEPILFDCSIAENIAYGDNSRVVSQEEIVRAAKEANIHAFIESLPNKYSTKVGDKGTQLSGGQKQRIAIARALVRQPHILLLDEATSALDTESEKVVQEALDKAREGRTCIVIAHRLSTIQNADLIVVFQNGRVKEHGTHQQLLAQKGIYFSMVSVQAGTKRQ

For `CCCCCCCC/C=C\CCCCCCCC(=O)OCCOCC(OCCO)C1OCC(OCCO)C1OCCO` (configuration not stated) [TWEEN 80], the Activity result in data set [1] is “inhibitor [+]”.

Consider CREMOPHOR EL, for which the Activity result in data set [2] is “inhibitor [+]”.

Values taken from ChEMBL document CHEMBL2074403, “The solvents cremophor EL and Tween 80 modulate daunorubicin resistance in the multidrug resistant Ehrlich ascites tumor” (Cancer Commun, 1990).
